Assay results published in patent EP4640206A1, “NISIN FOR INHIBITING BIOFILMS” (SkyLab AG, priority 2024, dated 2025).

Assays:
[1] = test system: Streptococcus mutans No. 22081; experiment: Effect of nisin concentrations on growth and biomass accumulation of S.mutans, serial two-fold dilutions micromethod, 16-hour follow-up (optical density A565 nm); type: cell-based
Description: Example No. 1. Determination of the effect of different concentrations of nisin on growth and biomass accumulation of S.mutans No. 22081 in 16-hour follow-up.
Aqueous solution of nisin in different concentrations was used as the working solution.
To prepare the reaction mixture containing the tested component, a method of serial twofold dilutions in heart-brain broth (Series 201181, valid till 012025., CONDALAB, Spain), a micromethod (flat-bottom 96-well plate), for which serial dilutions of the investigated component were prepared in liquid nutrient medium. When setting the methods of serial dilutions, control of culture growth on medium without the active component was carried out, and the quality of medium and investigated preparations was controlled using reference strains of the species. The purity of the microorganism suspension used for inoculation was also controlled by sowing on non-selective media.
The results of the micromethod formulation to evaluate the effect of drugs on the growth and development of the culture of Streptococcus mutans No. 22081 were recorded spectrophotometrically in an automatic kinetic format (intermittent shaking, T-37°C, measurement of optical density A565 nm every hour in automatic mode).

[2] = test system: S.mutans biofilms; experiment: Follow-up observation of pH of washes of a laboratory model of S. mutans biofilms in 10% sucrose; type: cell-based, Streptococcus mutans; details: 10% sucrose; for Value of pH decrease within 30 min. of measurement (%): compared to the initial value
Description: Example No. 2. Follow-up observation of pH of washes of a laboratory model of S. mutans biofilms.
Inoculum of S.mutans control strain was prepared from an ampoule. The ampoule with the dried strain was opened sterilely over a drier or a tray. The upper end of the ampoule was heated on a burner flame, and paraffin was removed; then a piece of sterile absorbent cotton moistened in sterile water was carefully touched to the pulled end of the ampoule so that a small crack appeared, and the same wet cotton was passed around the tip of the ampoule. After the crack had formed, the end of the ampoule was removed with a light blow of tweezers. After opening the ampoule, 0.3-0.5 ml of heart-brain broth was sterilely poured in. After dissolution of the dry contents, the ampoule was transferred with a Pasteur pipette into tubes with 2 ml of heart-brain broth and grown at 37°C for 2 hours in a thermostat in 5% CO2 medium. To restore full viability, 1-2 passages on nutrient media appropriate for the microbes of the species were required. 2 Petri dishes with agar containing 5% horse blood were seeded with 0.1 ml of a 2-hour culture on heart-brain broth of the strain. Petri dishes were incubated at 37°C for 18 hours in an incubator containing 5% CO2. Gram stained smears were prepared from the grown colonies to assess the tinctorial, phenotypic properties and homogeneity of bacteria. Species membership was confirmed using MALDI-TOF reference bases.
Aqueous solutions of nisin in concentrations of 0.004 and 0.008% were taken as the working solutions for testing. […] Distilled water was used as a negative control. […] Urea was chosen due to its ability to alkalinize the environment in bacterial biofilms (Jadon et al., 2018). During the assay, a 10% sucrose solution was used, which is known to be readily metabolized by cariogenic bacteria to acid, thus contributing to the overall acidification of the medium.
The contents of the wells were extracted using an aspirator. All 6 wells of the first row were filled with 1 ml of deionized water and left for 5 min. The water was extracted with an aspirator; 1 ml of the test solution was added into the wells; in 1 min the component was removed, the wells were glazed for 1 min with deionized water, then it was removed. 250 µl of 10% sucrose was added to the wells and biofilms were scraped off the well walls with a disposable plastic loop. The resulting suspension was transferred by pipette into three Eppendorf tubes: contents of wells 1 and 2 into Eppendorf tube No. 1, contents of wells 3 and 4 into Eppendorf tube No. 2, contents of wells 5 and 6 into Eppendorf tube No. 3; next, the measurement of pH started immediately. Time points of the measurement are: 0, 1, 2, 3, 4, 5, 6, 7, 8, 9, 10, 15, 20, 30 min. After the test was finished, the electrode was washed and the described procedure was repeated for the next solution under study.

[3] = heart-brain broth, 37°C, 16-hour follow-up

## Nisin
[1]; concentrations lower than 0.0039%
  effect on growth and biomass accumulation: no significant effect
[1]; [3]
  concentrations that significantly inhibited growth and biomass accumulation, but had no bactericidal effect: 0.0039-0.0078%
  final concentration with pronounced antibacterial effect: 0.0078-0.125%
  minimum-suppressive concentration: 0.0039%
[1]; nisin solution in concentration of 0.008% and below
  antibacterial and inhibitory activity against S.mutans: not able to have antibacterial and inhibitory activity
[2]; Nisin 0.004%, 0 min
  pH of mechanically disrupted S.mutans biofilms: 6.09±0.006
[2]; Nisin 0.004%, 1 min
  pH of mechanically disrupted S.mutans biofilms: 6.08±0.006
[2]; Nisin 0.004%, 1 min vs previous time point
  pH change (in brackets), S.mutans biofilms: -0.01
[2]; Nisin 0.004%, 2 min
  pH of mechanically disrupted S.mutans biofilms: 6.07±0.006
[2]; Nisin 0.004%, 2 min vs previous time point
  pH change (in brackets), S.mutans biofilms: -0.01
[2]; Nisin 0.004%, 3 min
  pH of mechanically disrupted S.mutans biofilms: 6.05±0.006
[2]; Nisin 0.004%, 3 min vs previous time point
  pH change (in brackets), S.mutans biofilms: -0.02
[2]; Nisin 0.004%, 4 min
  pH of mechanically disrupted S.mutans biofilms: 6.05±0
[2]; Nisin 0.004%, 4 min vs previous time point
  pH change (in brackets), S.mutans biofilms: 0
[2]; Nisin 0.004%, 5 min
  pH of mechanically disrupted S.mutans biofilms: 6.04±0.006
[2]; Nisin 0.004%, 5 min vs previous time point
  pH change (in brackets), S.mutans biofilms: -0.01
[2]; Nisin 0.004%, 6 min
  pH of mechanically disrupted S.mutans biofilms: 6.05±0.006
[2]; Nisin 0.004%, 6 min vs previous time point
  pH change (in brackets), S.mutans biofilms: +0.01
[2]; Nisin 0.004%, 7 min
  pH of mechanically disrupted S.mutans biofilms: 6.05±0.006
[2]; Nisin 0.004%, 7 min vs previous time point
  pH change (in brackets), S.mutans biofilms: 0
[2]; Nisin 0.004%, 8 min
  pH of mechanically disrupted S.mutans biofilms: 6.05±0
[2]; Nisin 0.004%, 8 min vs previous time point
  pH change (in brackets), S.mutans biofilms: 0
[2]; Nisin 0.004%, 9 min
  pH of mechanically disrupted S.mutans biofilms: 6.05±0
[2]; Nisin 0.004%, 9 min vs previous time point
  pH change (in brackets), S.mutans biofilms: 0
[2]; Nisin 0.004%, 10 min
  pH of mechanically disrupted S.mutans biofilms: 6.06±0.006
[2]; Nisin 0.004%, 10 min vs previous time point
  pH change (in brackets), S.mutans biofilms: +0.01
[2]; Nisin 0.004%, 15 min
  pH of mechanically disrupted S.mutans biofilms: 6.05±0.006
[2]; Nisin 0.004%, 15 min vs previous time point
  pH change (in brackets), S.mutans biofilms: -0.01
[2]; Nisin 0.004%, 20 min
  pH of mechanically disrupted S.mutans biofilms: 6.04±0.006
[2]; Nisin 0.004%, 20 min vs previous time point
  pH change (in brackets), S.mutans biofilms: -0.01
[2]; Nisin 0.004%, 30 min
  pH of mechanically disrupted S.mutans biofilms: 6.0±0
[2]; Nisin 0.004%, 30 min vs previous time point
  pH change (in brackets), S.mutans biofilms: -0.04
[2]; Nisin 0.004%
  Value of pH decrease within 30 min. of measurement (%): -1.47%
[2]; Nisin 0.008%
  Value of pH decrease within 30 min. of measurement (%): -3.15%
[2]; Nisin 0,008%, 0 min
  pH of mechanically disrupted S.mutans biofilms: 6.33±0
[2]; Nisin 0,008%, 1 min
  pH of mechanically disrupted S.mutans biofilms: 6.32±0.006
[2]; Nisin 0,008%, 1 min vs previous time point
  pH change (in brackets), S.mutans biofilms: -0.01
[2]; Nisin 0,008%, 2 min
  pH of mechanically disrupted S.mutans biofilms: 6.31±0.006
[2]; Nisin 0,008%, 2 min vs previous time point
  pH change (in brackets), S.mutans biofilms: -0.01
[2]; Nisin 0,008%, 3 min
  pH of mechanically disrupted S.mutans biofilms: 6.28±0.01
[2]; Nisin 0,008%, 3 min vs previous time point
  pH change (in brackets), S.mutans biofilms: -0.03
[2]; Nisin 0,008%, 4 min
  pH of mechanically disrupted S.mutans biofilms: 6.24±0.006
[2]; Nisin 0,008%, 4 min vs previous time point
  pH change (in brackets), S.mutans biofilms: -0.04
[2]; Nisin 0,008%, 5 min
  pH of mechanically disrupted S.mutans biofilms: 6.21±0.006
[2]; Nisin 0,008%, 5 min vs previous time point
  pH change (in brackets), S.mutans biofilms: -0.03
[2]; Nisin 0,008%, 6 min
  pH of mechanically disrupted S.mutans biofilms: 6.21±0
[2]; Nisin 0,008%, 6 min vs previous time point
  pH change (in brackets), S.mutans biofilms: -0.03
[2]; Nisin 0,008%, 7 min
  pH of mechanically disrupted S.mutans biofilms: 6.23±0
[2]; Nisin 0,008%, 7 min vs previous time point
  pH change (in brackets), S.mutans biofilms: +0.02
[2]; Nisin 0,008%, 8 min
  pH of mechanically disrupted S.mutans biofilms: 6.23±0
[2]; Nisin 0,008%, 8 min vs previous time point
  pH change (in brackets), S.mutans biofilms: 0
[2]; Nisin 0,008%, 9 min
  pH of mechanically disrupted S.mutans biofilms: 6.21±0
[2]; Nisin 0,008%, 9 min vs previous time point
  pH change (in brackets), S.mutans biofilms: -0.02
[2]; Nisin 0,008%, 10 min
  pH of mechanically disrupted S.mutans biofilms: 6.2±0.006
[2]; Nisin 0,008%, 10 min vs previous time point
  pH change (in brackets), S.mutans biofilms: -0.01
[2]; Nisin 0,008%, 15 min
  pH of mechanically disrupted S.mutans biofilms: 6.18±0
[2]; Nisin 0,008%, 15 min vs previous time point
  pH change (in brackets), S.mutans biofilms: -0.02
[2]; Nisin 0,008%, 20 min
  pH of mechanically disrupted S.mutans biofilms: 6.17±0.006
[2]; Nisin 0,008%, 20 min vs previous time point
  pH change (in brackets), S.mutans biofilms: -0.01
[2]; Nisin 0,008%, 30 min
  pH of mechanically disrupted S.mutans biofilms: 6.13±0.006
[2]; Nisin 0,008%, 30 min vs previous time point
  pH change (in brackets), S.mutans biofilms: -0.04
[2]; nisin 0.004-0.008%
  effect on the pH of cariogenic biofilm affected by sucrose: stabilizing effect
